Where two headings read alike, the source gives them in different places.

The nature of this data set: Measurement of pKa value of monomer having hydrophilic functional group Y by NaOH titration. Particulars: titration in water/acetone with NaOH, corrected by blank. It counts as physicochemical. On the procedure: The method of measuring and calculating a pKa value is mentioned below using 1,1-bistrifluoromethyl-3-buten-1-ol:
In a water/acetone solution of 10/15 ml was poured 0.7865 g of CH2═CHCH2C(CF3)2OH, followed by stirring at room temperature. After it was confirmed that the solution was homogeneous, titration was carried out with 0.2 mole/L NaOH solution. A titration curve was obtained by adding the NaOH solution dropwise in increments of 0.15 ml and recording a pH value at every addition. An equivalence point was determined by an inflection point (maximum differential value of titration curve=dpH/dml) of the titration curve. In this case, the equivalence point was 14.5 ml. […] From a titration curve of water/acetone solution and aqueous solution which had been measured previously as a blank solution, a difference in a pH value derived from an electric potential difference between the solutions at titration of 7.25 ml was 1.29.
In the case of titration of 1.0865 g of CH2═CHCH2C(CF3)2OH by the same procedures as above, an equivalence point was 20.15 ml and a half of the equivalence point was 10.08 ml. A pH value at a half of the equivalence point was 10.78.
When the same procedures as above were carried out by changing the titration solution to about 0.05 mole/L NaOH, an equivalence point of 0.115 g of CH2═CHCH2C(CF3)2OH was 8.00 ml and a half of the equivalence point was 4.00 ml. A pH value at this time was 10.92.
With respect to the various fluorine-containing ethylenic monomers having OH group shown in Table 2, a pKa value was measured by the same procedures as above.

Where [1] appears, read: water/acetone solution, read-out: pKa.

In the case of `C=CCC(O)(C(F)(F)F)C(F)(F)F` [1,1-bistrifluoromethyl-3-buten-1-ol], the pKa (as a rule, the negative logarithm of the acid dissociation constant) worked out at 9.6. Same read-out and setting: with `C=C(F)C(F)(F)OC(F)(C(F)(F)F)C(F)(F)OC(F)(C(=O)O)C(F)(F)F` (centres unmarked) [perfluoro-(9,9-dihydro-2,5-bistrifluoromethyl-3,6-dioxa-8-nonenoic acid)] the figure was 3.6; with “1,1,9,9-tetrahydro-2,5-bistrifluoromethyl-3,6-dioxa-8-nonenol”, 12.6. For the molecule `O=C(O)C1(F)CC2C=CC1C2` (centres unmarked), under setting [1], the pKa came out at 3.8. Take `C=C(F)C(=O)O` [CH2═CF—COOH, α-fluoroacrylic acid]: the pKa under setting [1] is 3.4.

Values taken from patent publication US20090142715A1, “LAMINATED RESIST USED FOR IMMERSION LITHOGRAPHY” (DAIKIN INDUSTRIES LTD., priority 2004, published 2009).
